Reference: patent US20250032464A1, “SOLID DISPERSION, PREPARATION METHOD THEREFOR, AND SOLID FORMULATION CONTAINING SAME” (HAIHE BIOPHARMA CO., LTD., priority 2021, published 2025)
Where two headings read alike, the source gives them in different places.

Assays:
P-gp = test: in vitro; details: human, Caco-2
in vitro = details: human, Caco-2
[1] = for Equilibrium solubility, 24 h: 37° C.
Caco-2 cell model = details: for The ratio of apparent permeability: human

SMILES | efflux ratio (P-gp) | Papp A→B (in vitro) | Papp B→A (in vitro) | Equilibrium solubility, 24 h ([1]; Water) | solubility ([1]; media with different pH values) | Equilibrium solubility, 24 h ([1]; pH 1.2 simulated gastric fluid) | Equilibrium solubility, 24 h ([1]; pH 4.5 phosphate buffer solution) | Equilibrium solubility, 24 h ([1]; pH 6.8 simulated intestinal fluid) | in vivo bioavailability (after direct administration) | bioavailability (micronized compound A) | permeability characteristic (Caco-2 cell model; Caco-2) | The ratio of apparent permeability (Caco-2 cell model; Caco-2, 2 μM) | The ratio of apparent permeability (Caco-2 cell model; Caco-2, 10 μM) | The ratio of apparent permeability (Caco-2 cell model; Caco-2, 50 μM)
CC(C)NCC(O)COc1cccc2ccccc12 (centres unmarked) [Propranolol, propranolol] | 1.24 | 13.7 ± 0.67 ×10⁻⁶ cm/s | 17 ± 0.32 ×10⁻⁶ cm/s |  |  |  |  |  |  |  |  |  |  | 
C[C@H]1O[C@@H](O[C@H]2[C@@H](O)C[C@H](O[C@H]3[C@@H](O)C[C@H](O[C@H]4CC[C@@]5(C)[C@H](CC[C@@H]6[C@@H]5C[C@@H](O)[C@]5(C)[C@@H](C7=CC(=O)OC7)CC[C@]65O)C4)O[C@@H]3C)O[C@@H]2C)C[C@H](O)[C@@H]1O [Digoxin, digoxin] | 165 | 0.08 ± 0.01 ×10⁻⁶ cm/s | 12.5 ± 0.9 ×10⁻⁶ cm/s |  |  |  |  |  |  |  |  |  |  | 
Cn1cc(-c2cnc3cnn(S(=O)(=O)c4cnc5ccc(-c6cnn(C)c6)cn45)c3c2)cn1 [Compound A, 1-{(6-[(1-methyl)-4-pyrazolyl]-imidazo[1,2-a]pyridine)-3-sulfonyl}-6-[(1-methyl)-4-pyrazolyl]-1-hydro-pyrazolo[4,3-b]pyridine] |  |  |  | 0.1 µg/mL | less than 1 μg/mL | 0.5 µg/mL | 0.1 µg/mL | 0.1 µg/mL | less than 1% | 3.3% | high permeability characteristic | 1.21 | 2.27 | 0.64
